Experimental data published in patent US8618080B2, “Immunomodulatory compounds and treatment of diseases related to an overproduction of inflammatory cytokines” (OM Pharma, priority 2006, dated 2013).

Columns and labels:
[1] = Pyrogenicity in the rabbit; assay type: in vivo, New Zealand white rabbits; settings: i.v., temperature increase
Description: 3 New Zealand white rabbits/group were injected i.v. with either OM-197-MP-AC or OM-294-DP at different doses (according to the European Pharmacopoeia 2001, Method 2.6.8).
Animals: Readout: temperature increase

[2] = test system: LACK-sensitized and challenged mice; assay: LACK-induced allergic asthma model, therapeutic i.p. treatment; assay type: in vivo
Description: The main differences compared to the previous (part a) protocol are: • Mice were treated with OM-197-MP-AC i.p. only on days 15, 17 and 19 (i.e. at least 1 week after the second sensitization) at the dose of 1 mg/Kg (20 μg per mouse). • The lung cytokines measured by multiplex analysis using FACSArray were IL-4, IL-5, IL-13, IFN-γ, and IL-10. Results: Total Cell Number and Eosinophils in BAL:
Two days after the last aerosol, mice were sacrificed and BAL cells harvested.
In order to further characterize the immune status of mice after therapeutic treatment with OM-197-MP-AC, we analyzed LACK-specific IgE in sera of treated mice and in those of untreated mice by ELISA. Whereas LACK-specific IgE levels increased 7-fold upon exposition to LACK aerosols, sera of OM-197-MP-AC-treated mice contained 2-fold less (p<0.05) LACK-specific IgE compared to untreated LACK challenged mice.
FIG. 8: Mice were therapeutically treated three times as described in the method section, lavages were performed in individual mice bled with a canula inserted into their trachea. Lungs were washed 3 times with 1 ml of warmed PBS. Cells were washed with PBS, resuspended in 300 μl, and counted using a Burker-Türk chamber. For differential BAL cell counts, cytospin preparations were made and stained with Wright/Giemsa coloration. The groups tested were: LACK-sensitized and PBS-challenged wt mice (Control), LACK-sensitized and challenged wt mice (Asthma), and OM-197-MP-AC-treated wt mice (OM-197). The total cell number in BAL was determined by microscopic examination of cytospin preparations stained with Wright/Giemsa coloration. The dotted line indicates throughout the graph the value obtained in untreated asthmatic animals.
FIG. 9: Percentage of eosinophils in BAL analyzed by microscopic examination of cytospin preparations stained with Wright/Giemsa coloration. Mice were therapeutically treated three times as described in the method section, cells from BAL were harvested as explained in FIG. 8. The (therapeutic) groups studied are the same as those used in FIG. 8. The dotted line indicates throughout the graph the value obtained in untreated asthmatic animals.
FIG. 10: To analyze lung cytokine contents, lungs were harvested and left lungs were used to prepare protein extracts. 400 μl were recovered for each left lung. Cytokines were measured by multiplex analysis using FACSArray, and results are given in pg/ml. The (therapeutic) groups studied are the same as those used in FIGS. 8 and 9. The dotted lines indicate throughout the graphs the values obtained in untreated asthmatic animals.

[3] = test system: NOD mice; assay: Occurrence of diabetes in Non Obese Diabetic (NOD) mice; assay type: in vivo; settings: for Occurrence of diabetes versus control (Kaplan-Meier, logrank): 10 weeks
Description: Group of 10 female 6-week old NOD mice were treated during 10 weeks with either 0.01, 0.1, and 1 mg/kg of OM-197-MP-AC. A group of 6 female MOD mice receiving 200 μl PBS i.p. 3 times a week was used as control.
In this series of experiments, the treatment was continued until the mice have reached 16 weeks of age. This is the point in time when control animals start developing overt diabetes.
Results in terms of diabetes incidence were compared to those obtained in control animals. Diabetes was checked once a week by glucosuria testing, using test strips (Glukotest®, Roche, France), twice a week when diabetes appeared. Diabetes was confirmed by evaluating glycemia (>3 mg/ml) with test strips (Glucotrend®).
The occurrence of diabetes in the different experimental groups is plotted (see FIG. 15) using the Kaplan-Meier method, i.e. non parametric cumulative survival plot. The statistical comparison between the curves is performed using the logrank (Mantel-Cox) test which provided the corresponding χ2 values.
FIG. 15: Occurrence of diabetes in NOD mice. Mice were treated i.p. with either PBS (6 animals), or the 3 indicated doses of OM-197-MP-AC (3 groups of 10 animals). Diabetes was checked once a week by glucosuria testing (Glukotest), and twice a week when diabetes appeared. Diabetes was confirmed by evaluating glycemia (>3 mg/ml) with test strips (Glucotrend®). The occurrence of diabetes in the different experimental groups is plotted (see FIG. 15) using the Kaplan-Meier method, i.e. non parametric cumulative survival plot. The statistical comparison between the curves is performed using the logrank (Mantel-Cox) test which provided the corresponding χ2 values: OM-197-MP-AC 1 mg/kg p=0.321; 0.1 mg/kg=0.0543

[4] = 1 mg/Kg i.p. therapeutic, versus untreated mice

With `CCCCCCCCCCCC(=O)O[C@H](CCCCCCCCCCC)CC(=O)N[C@@H](CCOP(=O)(O)O)C(=O)NCCC[C@H](COC(=O)CCCCCN)NC(=O)C[C@H](O)CCCCCCCCCCC` [OM-197-MP-AC, (3S, 9R)-3-[(R)-3-dodecanoyloxytetradecanoylamino]-4-oxo-5-aza-9-[(R)-3-hydroxytetradecanoylamino]-decan-1, 10-diol 1-dihydrogenophosphate 10-(6-aminohexanoate)] the Pyrogenic threshold [1] was > 0.9 mg/kg, the “Eosinophils in BAL, less than untreated mice” value ([2]; 1 mg/Kg i.p. on days 15, 17, 19 (therapeutic)) was 40-45 fold less and the “BAL cell recruitment impaired” value ([2]; 1 mg/Kg i.p. on days 15, 17, 19 (therapeutic), versus untreated mice) was 90%. The “Lung IFN-γ levels, treated versus untreated mice” value ([2]; 1 mg/Kg i.p. therapeutic) was “reduced”, the “Lung IL-10 amounts upon treatment” value ([2]; 1 mg/Kg i.p. therapeutic) was “not significantly increased” and the “LACK-specific IgE in sera, less than untreated LACK challenged mice” value ([2]; 1 mg/Kg i.p. therapeutic, ELISA) was 2 fold less. For the same compound, the “Lung IL-4 levels reduced” value [2, 4] was 90%, the “Lung IL-5 amounts reduced” value [2, 4] was 70% and the “Lung IL-13 amounts reduced” value [2, 4] was 85%. For the same compound, the “Occurrence of diabetes versus control (Kaplan-Meier, logrank)” value ([3]; 0.1 mg/kg i.p.) was “positive trend”, the Animals exhibiting diabetes ([3]; 0.3 mg/kg, week 27, another experiment) was 27% and the “Occurrence of diabetes versus control (Kaplan-Meier, logrank)” value ([3]; 1 mg/kg i.p.) was “significantly active”.
